Results on one molecule are retold here after US12233129B2, “Methods and compositions for the treatment of cancer” (priority 2019, dated 2025).

“Also recorded” adds a separate entry of the source.

What all share (assay type): cell-based, human
The test system of assay [1] is UBXN2A promoter. As to the kind of experiment: UBXN2A promoter luciferase high-throughput drug screen in HCT-116 cells. The method, then:
Our in vivo results encouraged us to screen for compounds that can enhance expression of UBXN2A. Using the UBXN2A promoter upstream of a luciferase construct that was transiently transfected to HCT-116 cells, we performed a high-throughput drug screen with 1800 FDA approved drugs, synthetic compounds, and natural products. Forty-eight hours after transfection, cells were treated with compounds for 24 hours in triplicate (FIG. 16A). […] We looked at protein expression of UBXN2A as well as P47 (another member of the UBXD family) to confirm the selectivity of VH as a selective enhancer of UBXN2A protein in cells. […] We observed a different level of VH-dependent UBXN2A induction in different segments of the gastrointestinal system (esophagus to rectum; data not shown).
A cell-based screen was conducted in search of compounds that induce the expression of the UBXN2A gene. The 3.9K base of DNA upstream from the UBXN2A gene on human chromosome 2, including endogenous promoters and necessary enhancers as well as untranslated exon 1, was cloned into MCS-mGL.1, a Gaussia luciferase vector, and transiently transfected into HCT-116 colon cancer cells, with empty MCS-mGL.1 for background expression. […] A glow luciferase activity assay was conducted in triplicate followed by semi-quantitative RT-PCR and WB analysis for UBXN2A, p47 (negative control), or GAPDH± Veratrine or its purified form VTD. […]

In assay [2] the test system is HCT-116 p53+/+. Nature of the assay: MTT cell viability assay. On the procedure: (§1) We decided to confirm whether VTD-induced tumor suppression is indeed mediated via the UBXN2A-mot-2-p53 axis (FIG. 18H). After initial verification with WB (FIG. 18A), HCT-116 (p53+/+ and p53 −/−) and LoVo were treated with VTD for 24, 48, and 72 hours (FIG. 18B-D). […] We defined this phenomenon as a delayed cytotoxic response, since it occurs through UBXN2A transcription, as previously described for other anti-cancer agents. […] In the second set of experiments, we treated two stable UBXN2A silenced clones of HCT-116 along with controls with VTD. […] Staurosporine-treated cells were used as a positive control (S4F). […] Finally, to understand the contribution of mot-2 to the anti-cancer mechanism of VTD, we used a mot-2 inhibitor known as MKT-077 [7] along with VTD in well-differentiated SW-48 (WT-p53) colon cancer cells for 72 hours. Due to the critical role of mot-2 in the mitochondria, we could not use a silencing strategy for mot-2 in this set of experiments.
(§2) The viability of cells was calculated as % of control.
(§3) FIG. 18: Veratridine (VTD) functions via the UBXN2A-mot-2-p53 axis. (A) WB confirmed the presence and the absence of p53 protein in HCT-116 p53^(+/+) and HCT-116 p53^(−/−) cancer cell lines, respectively. […] (F) In another set of experiments, UBXN2A-silenced cells were treated with VTD (100, 200, and 300 μM) for 24 hours. Cells were then labelled with Sytox Red followed by flow cytometry analysis. […] (G) SW48 well-differentiated colon cancer cells with WT-p53 were treated with MKT-077 (5 mg/ml), an mot-2 inhibitor, along with VTD for 72 hours. […] (H) This flowchart recapped the sequence of proteins which activate and function upon VTD exposure to decrease cell viability. The data is shown as mean±SEM of three independent experiments (n=3) in triplicate where *p<0.05 using Benferroni's modified student's t-test.

In assay [3] the test system is LoVo. As to the kind of experiment: MTT cell viability assay. The method, then:
as §1, §2, §3
(In general: Formazan colour is commonly taken as a measure of viable cells.)

In assay [4] the test system is HCT-116 p53−/−. Nature of the assay: MTT cell viability assay. The method, then: as §1, §2, §3
Assay [5] concerns LoVo. As to the kind of experiment: Flow cytometry of CD44+ cancer stem cells. Conditions: intermediate-dose of VTD. From the text: (§4) Based on the significant effect of long-term exposure in LoVo and U2OS, we hypothesized that VTD could be a potential complementary strategy alongside 5-FU, an effective drug with a high rate of resistant events in colon tumors. To answer this question, we first determined the minimum concentration of 5-FU that has no effect or a very mild effect on cell viability after 10 days' exposure in three cell lines HCT-116, LoVo, and U2OS (data not shown). We performed the 10 days' treatment using a combination of a low dose of VTD (50 μM or 100 μM) plus a suboptimal dose of 5-FU (1 μM or 5 μM).
(§5) FIG. 20: Sensitization of colon cancer cells to a long-term suboptimal dose of 5-fluorouracil exposure when combined with VTD. (A-D) (A) HCT-116, (B) LoVo, (C) SW-480, and (D) U2OS were treated with VTD (10-300 μM) for 10 days. […] (E-G) (E) HCT-116, (F) LoVo, and (G) U-2OS were treated with suboptimal doses of 5-FU and VTD (50 and 100 μM) for 10 days. […] (J) Tumor tissue lysates from 48 patients with colon cancer along the matched adjacent normal colon tissue lysates were probed with anti-UBXN2A and anti-Actin antibodies, followed by quantitation and normalization of signals. […]
(In flow cytometry, cells or beads pass a laser one at a time.)

Assay [6] has as its system U2OS. Nature of the assay: Flow cytometry of CD44+ cancer stem cells. Conditions: intermediate-dose of VTD.
Source text: as §4, §5

On to `COc1ccc(C(=O)O[C@H]2CC[C@@]3(C)[C@@H]4CC[C@H]5[C@]6(O)C[C@H](O)[C@@]7(O)[C@@H](CN8C[C@@H](C)CC[C@H]8[C@@]7(C)O)[C@]6(O)C[C@@]53O[C@]24O)cc1OC` [VTD, Veratridine], for which the UBXN2A promoter transactivation entry in assay [1] is “transactivates the UBXN2A promoter”. In addition, the “cell viability (MTT)” value in assay [2] (48 and 72 hours, compared with HCT-116 p53−/−) is “significantly lower”; in assay [2] (24 hour treatment), “not sufficient to produce any cytotoxic or anti-proliferative effect”; in assay [3] (48 and 72 hours) it was “reduction of cell viability reached a maximum at 72 hours; also recorded: highest sensitivity to VTD”; in assay [3] (24 hour treatment, higher doses), “significantly decreases the viability”; in assay [4] (48 and 72 hours), “started to respond to VTD at higher doses after 48 hours; also recorded: more resistance to VTD's effects”; in assay [4] (24 hour treatment), “not sufficient to produce any cytotoxic or anti-proliferative effect”. Further, the “abundance of CD44+ cancer stem cells” value in assay [5] and in assay [6] was “reduces the abundance of the CD44+ cancer stem cells” each time.
